Source: patent US20220324815A1, “2-PHENOXY-PYRIMIDINE DERIVATIVES AS HERBICIDAL COMPOUNDS” (SYNGENTA CROP PROTECTION AG, priority 2019, published 2022)

Key:
Type in all cases: in vivo
Conditions in all cases: 250 g/ha unless otherwise stated, evaluated after 13 days, five-point scale
[1] = test system: Amaranthus retoflexus (AMARE); assay: Test 1 glasshouse herbicide test, pre-emergence application (Table B2)
Outline: (§1)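 Score is % phytotoxicity after 13 days, binned 1 (0–20%) to 5 (81–100%). Compound given at 250 g/ha unless stated, as acetone/water (50:50) spray with 0.5% Tween 20, one day post-sowing (pre-emergence) or after 8 days' growth (post-emergence); glasshouse at 24/16 °C day/night, 14 h light, 65% humidity.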

[2] = test system: Echinochloa crus-galli (ECHCG); assay: as above
Outline: as §1

[3] = test system: Ipomoea hederacea (IPOHE); assay: as above
Outline: as §1

Setaria faberi (SETFA) [4] = assay: as above
Outline: as §1

[5] = test system: Amaranthus retoflexus (AMARE); assay: Test 1 glasshouse herbicide test, post-emergence application (Table B1)
Outline: as §1

[6] = test system: Echinochloa crus-galli (ECHCG); assay: as above
Outline: as §1

[7] = test system: Ipomoea hederacea (IPOHE); assay: as above
Outline: as §1

Setaria faberi (SETFA) [8] = assay: as above
Outline: as §1

Row | SMILES | % phytotoxicity AMARE, pre-emergence application [1] | % phytotoxicity ECHCG, pre-emergence application [2] | % phytotoxicity IPOHE, pre-emergence application [3] | % phytotoxicity SETFA, pre-emergence application (Setaria faberi (SETFA) [4]) | % phytotoxicity AMARE, post-emergence application [5] | % phytotoxicity ECHCG, post-emergence application [6] | % phytotoxicity IPOHE, post-emergence application [7] | % phytotoxicity SETFA, post-emergence application (Setaria faberi (SETFA) [8])
1 | O=S(=O)(CCC(F)F)c1c(Cl)cccc1Oc1ncc(Cl)cn1 [Compound A96] | 5 (5=81 to 100%) | 5 (5=81 to 100%) | 5 (5=81 to 100%) | 5 (5=81 to 100%) | 5 (5=81 to 100%) | 5 (5=81 to 100%) | 5 (5=81 to 100%) | 5 (5=81 to 100%)
2 | CCCC(C)CS(=O)(=O)c1ccccc1Oc1ncc(Cl)cn1 (racemic) [Compound A74] | 1 (1=0 to 20%) | 1 (1=0 to 20%) | 1 (1=0 to 20%) | 1 (1=0 to 20%) | 3 (3=41 to 60%) | 1 (1=0 to 20%) | 1 (1=0 to 20%) | 1 (1=0 to 20%)
3 | FC(F)=C(F)CCSc1ccccc1Oc1ncc(Cl)cn1 [Compound A68] | 5 (5=81 to 100%) | 5 (5=81 to 100%) | 4 (4=61 to 80%) | 5 (5=81 to 100%) | 5 (5=81 to 100%) | 5 (5=81 to 100%) | 5 (5=81 to 100%) | 4 (4=61 to 80%)
4 | N#Cc1cccc(Oc2ncc(Cl)cn2)c1S(=O)(=O)CCC(F)F [Compound A97] | 5 (5=81 to 100%) | 4 (4=61 to 80%) | 5 (5=81 to 100%) | 4 (4=61 to 80%) | 5 (5=81 to 100%) | 4 (4=61 to 80%) | 4 (4=61 to 80%) | 2 (2=21 to 40%)
5 | CCC(C)S(=O)(=O)c1ccccc1Oc1ncc(Cl)cn1 (stereo not drawn) [Compound A88] | 5 (5=81 to 100%) | 1 (1=0 to 20%) | 2 (2=21 to 40%) | 5 (5=81 to 100%) | 2 (2=21 to 40%) | 1 (1=0 to 20%) | 1 (1=0 to 20%) | 1 (1=0 to 20%)
6 | CCCCCS(=O)(=O)c1ccccc1Oc1ncc(Cl)cn1 [Compound A43] | 5 (5=81 to 100%) | 4 (4=61 to 80%) | 1 (1=0 to 20%) | 4 (4=61 to 80%) | 3 (3=41 to 60%) | 2 (2=21 to 40%) | 1 (1=0 to 20%) | 2 (2=21 to 40%)
7 | N#Cc1cccc(Oc2ncc(Cl)cn2)c1S(=O)(=O)CCCCC(F)(F)F [Compound A91] | 5 (5=81 to 100%) | 5 (5=81 to 100%) | 5 (5=81 to 100%) | 5 (5=81 to 100%) | 5 (5=81 to 100%) | 5 (5=81 to 100%) | 4 (4=61 to 80%) | 4 (4=61 to 80%)
8 | [O-][S+](CCCC(F)F)c1c(Cl)cccc1Oc1ncc(Cl)cn1 (stereo not drawn) [Compound A104] | 5 (5=81 to 100%) | 5 (5=81 to 100%) | 5 (5=81 to 100%) | 5 (5=81 to 100%) | 5 (5=81 to 100%) | 5 (5=81 to 100%) | 5 (5=81 to 100%) | 5 (5=81 to 100%)
9 | CCCSc1ccccc1Oc1ncc(Cl)cn1 [Compound A49] | 5 (5=81 to 100%) | 5 (5=81 to 100%) | 3 (3=41 to 60%) | 5 (5=81 to 100%) | 4 (4=61 to 80%) | 4 (4=61 to 80%) | 4 (4=61 to 80%) | 4 (4=61 to 80%)
10 | N#Cc1ccc(CSc2ccccc2Oc2ncc(Cl)cn2)cc1 [Compound A36] | 5 (5=81 to 100%) | 4 (4=61 to 80%) | 2 (2=21 to 40%) | 5 (5=81 to 100%) | 5 (5=81 to 100%) | 3 (3=41 to 60%) | 3 (3=41 to 60%) | 4 (4=61 to 80%)
11 | COCCCSc1ccccc1Oc1ncc(Cl)cn1 [Compound A56] | 2 (2=21 to 40%) | 1 (1=0 to 20%) | 2 (2=21 to 40%) | 2 (2=21 to 40%) | 2 (2=21 to 40%) | 1 (1=0 to 20%) | 1 (1=0 to 20%) | 1 (1=0 to 20%)
12 | COCCSc1ccccc1Oc1ncc(Cl)cn1 [Compound A41] | 1 (1=0 to 20%) | 2 (2=21 to 40%) | 2 (2=21 to 40%) | 2 (2=21 to 40%) | 3 (3=41 to 60%) | 3 (3=41 to 60%) | 3 (3=41 to 60%) | 2 (2=21 to 40%)
13 | O=S(=O)(CCCC(F)F)c1c(Cl)cccc1Oc1ncc(Cl)cn1 [Compound A103] | 4 (4=61 to 80%) | 2 (2=21 to 40%) | 4 (4=61 to 80%) | 2 (2=21 to 40%) | 4 (4=61 to 80%) | 1 (1=0 to 20%) | 2 (2=21 to 40%) | 1 (1=0 to 20%)
14 | C#CCSc1ccccc1Oc1ncc(Cl)cn1 [Compound A45] | 3 (3=41 to 60%) | 3 (3=41 to 60%) | 1 (1=0 to 20%) | 3 (3=41 to 60%) | 3 (3=41 to 60%) | 3 (3=41 to 60%) | 1 (1=0 to 20%) | 2 (2=21 to 40%)
15 | N#Cc1cccc(Oc2ncc(Cl)cn2)c1SCCCCCC(F)(F)F [Compound A40] | 5 (5=81 to 100%) | 4 (4=61 to 80%) | 1 (1=0 to 20%) | 5 (5=81 to 100%) | 5 (5=81 to 100%) | 4 (4=61 to 80%) | 3 (3=41 to 60%) | 4 (4=61 to 80%)
